In paper PMC3827032, “Functional Analysis of Hsp70 Inhibitors” (PLoS ONE, 2013) one finds Kd and Km data, which are given here for three compounds.

Assay [1] concerns the target T1, Hsp70 (Homo sapiens, UniProt P0DMV8). Nature of the assay: ITC ([…]), SPR ([…]), DSC (Tm +[…]°C). In kind it is binding. On the set-up: gene HSPA1A; full-length, nucleotide-free.
Assay [2] deals with T1, Hsp70. Details: gene HSPA1A.
For assay [3], the target named is T1, Hsp70. Nature of the assay: crystal structure of NBD ([…] Å), ITC ([…]), SPR ([…]), DSC, ATPase inhibition (Ki […]; […] with Hdj1). The format is binding. Details: gene HSPA1A; full-length (ITC, SPR); NBD residues 1–382 (crystal structure).

Molecules are shown by their SMILES.

The term Kd denotes a measure of binding affinity in units of concentration. Low readings indicate a tighter complex, high ones a looser complex. Usually Km stands for the concentration of substrate that gives half-maximal velocity.

T1 sequence (P0DMV8 2-641): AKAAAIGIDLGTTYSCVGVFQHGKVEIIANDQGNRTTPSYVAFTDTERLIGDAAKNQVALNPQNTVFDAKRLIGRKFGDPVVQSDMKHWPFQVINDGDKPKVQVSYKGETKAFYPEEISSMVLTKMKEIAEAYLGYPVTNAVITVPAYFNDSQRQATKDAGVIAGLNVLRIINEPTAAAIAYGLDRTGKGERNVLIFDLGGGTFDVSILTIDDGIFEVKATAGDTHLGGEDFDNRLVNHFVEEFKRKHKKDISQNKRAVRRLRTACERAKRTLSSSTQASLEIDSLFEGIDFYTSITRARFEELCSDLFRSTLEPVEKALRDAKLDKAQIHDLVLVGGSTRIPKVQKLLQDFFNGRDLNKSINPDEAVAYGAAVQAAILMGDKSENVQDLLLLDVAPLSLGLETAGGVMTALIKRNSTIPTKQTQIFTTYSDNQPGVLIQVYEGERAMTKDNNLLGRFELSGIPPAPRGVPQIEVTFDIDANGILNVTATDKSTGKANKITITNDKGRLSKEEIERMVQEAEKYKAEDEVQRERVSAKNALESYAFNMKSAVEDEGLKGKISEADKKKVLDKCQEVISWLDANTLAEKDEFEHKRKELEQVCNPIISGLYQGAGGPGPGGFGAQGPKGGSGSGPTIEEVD

As for `Nc1ncnc2c1ncn2[C@@H]1O[C@H](COP(=O)(O)OP(=O)(O)O)[C@@H](O)[C@H]1O` [ADP], the Kd on Hsp70 [1] was determined as 0.0077 ± 0.0004 µM.
Consider `Nc1ncnc2c1ncn2[C@@H]1O[C@H](COP(=O)(O)OP(=O)(O)OP(=O)(O)O)[C@@H](O)[C@H]1O` [ATP], for which the Km at Hsp70 [2] was determined as 9.9 ± 1.3 µM.
In turn, `N#Cc1ccc(COC[C@H]2O[C@@H](n3c(NCc4ccc(Cl)c(Cl)c4)nc4c(N)ncnc43)[C@H](O)[C@@H]2O)cc1` [VER-155008] registered a Kd on Hsp70 [3] of 0.228 ± 0.016 µM.
